# In the supplement of paper PMC4314810:
# ± gives the standard deviation of the averaged measurements.
# Tested on: MCF7
# Test: HRG-induced Akt activation (dPAkt = log2 pAkt/Akt HRG-stimulated minus log2 pAkt/Akt basal) (log2 ratio difference); higher = stronger HRG-induced Akt(T308) phosphorylation
# Settings: miRNA mimic concentration 10 nM; time after transfection 72 h; heregulin 10 ng/ml; stimulation time 1 h
# How it was run: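 MCF7 cells ([…], 96-well plates) carrying one of 879 miRNA mimics, transfected at 10 nM final with Lipofectamine RNAiMax in two biological replicates, were stimulated after 72 h with 10 ng/ml heregulin-beta1 for 1 h or left unstimulated. Phospho-Akt(T308) and total Akt in cells fixed with 4% PFA were read by In-Cell Western on an Odyssey and corrected for column-wise fixation decay to give log2(pAkt/Akt). Heregulin-induced Akt activation is the replicate mean of stimulated minus unstimulated ratios.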
row,Sequence,HRG-induced Akt activation (log2)
1,GGGAGCCAGGAAGUAUUGAUGU,1.82 ± 0.069
2,CAAAAACCACAGUUUCUUUUGC,0.997 ± 0.23
3,GGGGUUCCUGGGGAUGGGAUUU,1.21 ± 0.3
4,CUGGCCCUCUCUGCCCUUCCGU,1.18 ± 0.4
5,UAGAGUUACACCCUGGGAGUUA,1.66 ± 0.19
6,AAGUGUGCAGGGCACUGGU,2.33 ± 0.23
7,CAGUGCAAUGAUAUUGUCAAAGC,1.07 ± 0.53
8,UUCAAGUAAUUCAGGAUAGGU,1.06 ± 0.39
9,AAGGCAGGGCCCCCGCUCCCC,1.14 ± 0.77
10,UCUCUGGGCCUGUGUCUUAGGC,1.55 ± 0.3
11,GAAGUGUGCCGUGGUGUGUCU,2.03 ± 0.31
12,UCCGUCUCAGUUACUUUAUAGC,1.63 ± 0.18
13,UUAUUGCUUAAGAAUACGCGUAG,1.64 ± 0.095
14,CCUGCAGCGACUUGAUGGCUUCC,0.841 ± 0.6
15,AAUAAUACAUGGUUGAUCUUU,1.38 ± 0.066
16,AGAGGAUACCCUUUGUAUGUU,1.23 ± 0.53
17,UACCCUGUAGAACCGAAUUUGUG,1.99 ± 0.17
18,UUUCCAUAGGUGAUGAGUCAC,1.09 ± 0.68
19,ACCAGGAGGCUGAGGCCCCU,1.68 ± 0.1
20,UGCAGGACCAAGAUGAGCCCU,1.41 ± 0.17
21,UGCCCUUAAAGGUGAACCCAGU,1.22 ± 0.2
22,UGAGUUGGCCAUCUGAGUGAG,1.61 ± 0.27
23,UUCAUUUGGUAUAAACCGCGAUU,2.42 ± 0.062
24,AUCGCUGCGGUUGCGAGCGCUGU,1.63 ± 0.063

row,Sequence,HRG-induced Akt activation (log2)
1,GUGACAUCACAUAUACGGCAGC,1.08 ± 0.31
2,AAAGUGCUUCCCUUUGGACUGU,0.806 ± 0.049
3,UCAGCAAACAUUUAUUGUGUGC,1.819 ± 0.011
4,UGGAAUGUAAGGAAGUGUGUGG,2.05 ± 0.28
5,CCUCUGAAAUUCAGUUCUUCAG,1.76 ± 0.071
6,CGAAUCAUUAUUUGCUGCUCUA,1.44 ± 0.25
7,UUUGGUCCCCUUCAACCAGCUG,1.54 ± 0.13
8,UCCAUUACACUACCCUGCCUCU,1.37 ± 0.17
9,GUGAGGGCAUGCAGGCCUGGAUGGGG,1.43 ± 0.21
10,UUAAGACUUGCAGUGAUGUUU,1.25 ± 0.66
11,ACAGUAGUCUGCACAUUGGUUA,1.692 ± 0.0034
12,AUGGUUCCGUCAAGCACCAUGG,1.87 ± 0.22
13,UUUAGAGACGGGGUCUUGCUCU,1.54 ± 0.51
14,CUCGGCGCGGGGCGCGGGCUCC,1.37 ± 0.015
15,UGUCAGUUUGUCAAAUACCCCA,1.28 ± 0.73
16,CUGUAAUAUAAAUUUAAUUUAUU,1.42 ± 0.037
17,UGAUUGUCCAAACGCAAUUCU,1.82 ± 0.3
18,AAACUACUGAAAAUCAAAGAU,1.76 ± 0.11
19,AGUGCCUGAGGGAGUAAGAGCCC,1.72 ± 0.04
20,UGAGUGUGUGUGUGUGAGUGUGU,2.295 ± 0.0047
21,UAAGGUGCAUCUAGUGCAGAUAG,2.27 ± 0.37
22,UUGUACAUGGUAGGCUUUCAUU,1.7 ± 0.31
23,UAAUUGCUUCCAUGUUU,1.75 ± 0.088
24,GUGCAUUGCUGUUGCAUUGC,1.178 ± 0.00052

row,Sequence,HRG-induced Akt activation (log2)
1,GUGAAAUGUUUAGGACCACUAG,1.97 ± 0.049
2,GGAGGGGUCCCGCACUGGGAGG,1.82 ± 0.057
3,AAGUGAUCUAAAGGCCUACAU,1.67 ± 0.14
4,UUGGGACAUACUUAUGCUAAA,1.28 ± 0.2
5,CAGCCACAACUACCCUGCCACU,1.94 ± 0.99
6,GACUAUAGAACUUUCCCCCUCA,1.07 ± 0.064
7,CUGCGCAAGCUACUGCCUUGCU,1.07 ± 0.26
8,CUGGGAUCUCCGGGGUCUUGGUU,2 ± 0.076
9,CCAUGGAUCUCCAGGUGGGU,1.47 ± 0.17
10,GUGGGUACGGCCCAGUGGGGGG,1.24 ± 0.18
11,AAAAGUAAUUGUGGUUUUGGCC,1.15 ± 0.15
12,CUCUCACCACUGCCCUCCCACAG,1.9 ± 0.13
13,GCCCAAAGGUGAAUUUUUUGGG,1.33 ± 0.1
14,CGUCAACACUUGCUGGUUUCCU,2.32 ± 0.12
15,GAUUAGGGUGCUUAGCUGUUAA,1.67 ± 0.28
16,AAGUGCCUCCUUUUAGAGUGUU,0.982 ± 0.27
17,AACCCGUAGAUCCGAUCUUGUG,0.985 ± 0.36
18,UAAAUCCCAUGGUGCCUUCUCCU,2.03 ± 0.12
19,ACAGGUGAGGUUCUUGGGAGCC,1.32 ± 0.087
20,GGGUGGGGAUUUGUUGCAUUAC,1.16 ± 0.097
21,GGUCCAGAGGGGAGAUAGGUUC,1.67 ± 0.24
22,UAUAGGGAUUGGAGCCGUGGCG,1.04 ± 0.064
